In the supplement of paper PMC10920090:

Tests used:
MDA-MB-231 [1] = experiment: drug sensitivity score (DSS), cell viability CellTiter-Glo; higher = more sensitive; extreme values may be limits of the assay; settings: 72 h
MDA-MB-231 [2] = experiment: drug sensitivity score (DSS), cytotoxicity CellTox Green; higher = more cytotoxic; extreme values may be limits of the assay; settings: 72 h
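Throughout, for drug sensitivity score (DSS), cytotoxicity CellTox Green: DSS summarises each dose–response curve by combining IC50, EC50, maximal inhibition and efficacy across drug concentrations.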

SMILES	drug sensitivity score (MDA-MB-231 [1]; shRNA: shPPFIA1_1) [DSS]	drug sensitivity score (MDA-MB-231 [1]; shRNA: shScramble) [DSS]	drug sensitivity score (MDA-MB-231 [2]; shRNA: shPPFIA1_1) [DSS]	drug sensitivity score (MDA-MB-231 [2]; shRNA: shScramble) [DSS]
COc1ccccc1S(=O)(=O)Nc1ccc2c(c1)CN(C)C(=O)N2 [PFI-1]	1.4	4.4	0	0
CNC(=O)c1cc(Oc2ccc(NC(=O)Nc3ccc(Cl)c(C(F)(F)F)c3)c(F)c2)ccn1 [Regorafenib]	3.6	7	8.2	4.3
CC1(C)CCC(c2ccc(Cl)cc2)=C(CN2CCN(c3ccc(C(=O)NS(=O)(=O)c4ccc(N[C@H](CCN5CCOCC5)CSc5ccccc5)c(S(=O)(=O)C(F)(F)F)c4)cc3)CC2)C1 [Navitoclax]	4.4	4.4	15.2	12.4
Nc1nc(Nc2ccc3c(c2)CC[C@@H](N2CCCC2)CC3)nn1-c1cc2c(nn1)-c1ccccc1CCC2 [BGB324]	10.6	9.5	4.4	6.1
O=c1[nH]cc(F)c(=O)[nH]1 [Fluorouracil]	0	0.6	0	0
CNc1ncc2cc(-c3cc(NC(=O)NCCC(C)(C)C)c(F)cc3C)c(C)nc2n1	0.6	14.8	21.9	19.4
CC(=O)O[C@]1(C(C)=O)CC[C@H]2[C@@H]3C=C(C)C4=CC(=O)CC[C@]4(C)[C@H]3CC[C@@]21C [Megestrol acetate]	0	0	0	0
C[C@H]1Oc2cc(cnc2N)-c2c(nn(C)c2C#N)CN(C)C(=O)c2ccc(F)cc21	0	0	0	0
CCn1c(C(=O)N(C2CC2)C2CC2)cc2c3c(ncn3C)c(Nc3cc(C)n(C)n3)nc21	0	0	0	0
COc1ccc(Cn2ccc3ccc(C(=O)NO)cc32)cc1	0	0	10.5	0
O=C(c1ccc(F)c(F)c1Nc1ccc(I)cc1F)N1CC(O)([C@@H]2CCCCN2)C1 [Cobimetinib]	1.6	12.8	4.4	12
CN(Cc1cnc2nc(N)nc(N)c2n1)c1ccc(C(=O)N[C@@H](CCC(=O)O)C(=O)O)cc1 [Methotrexate]	2.8	4	0	0
COc1cc2nccc(Oc3ccc(NC(=O)C4(C(=O)Nc5ccc(F)cc5)CC4)cc3)c2cc1OC [Cabozantinib]	3.2	1.1	0	0
Nc1nc(Cl)nc2c1ncn2[C@@H]1O[C@H](CO)[C@@H](O)[C@@H]1F [Clofarabine]	0	6.5	0	0
CCc1c(C(=O)C(N)=O)c2c(OCC(=O)O)cccc2n1Cc1ccccc1 [Varespladib]	0	0	0	0
CCNC(=O)Nc1ccc(-c2nc3c(c(N4CCOC[C@@H]4C)n2)CCN(C2COC2)C3)cc1 [RG-7603]	0	2.7	0	0
Cc1ccc(C(=O)N(CCCN)[C@@H](c2oc3cc(Cl)ccc3c(=O)c2Cc2ccccc2)C(C)C)cc1	0	6.3	9.8	8.7
O=C(/C=C/c1cccnc1)NCCCCC1CCN(C(=O)c2ccccc2)CC1 [Daporinad]	24.6	26.8	0	0
Nc1nc(OCc2cc(Br)cs2)c2[nH]cnc2n1 [Lomeguatrib]	0.1	0	0	0
CC(C)(C)c1cc(NC(=O)Nc2ccc(-c3cn4c(n3)sc3cc(OCCN5CCOCC5)ccc34)cc2)no1 [Quizartinib]	0	0	0	0
Cc1nc(=O)c2cc(CN(C)c3ccc(C(=O)N[C@@H](CCC(=O)O)C(=O)O)s3)ccc2[nH]1 [Raltitrexed]	0	0	0	0
O=C(Nc1cccc(NC(=O)c2cccc(O)c2O)c1)c1cccc(O)c1O [MST-312]	8.6	7.6	0	0

SMILES	drug sensitivity score (MDA-MB-231 [1]; shRNA: shPPFIA1_1) [DSS]	drug sensitivity score (MDA-MB-231 [1]; shRNA: shScramble) [DSS]	drug sensitivity score (MDA-MB-231 [2]; shRNA: shPPFIA1_1) [DSS]	drug sensitivity score (MDA-MB-231 [2]; shRNA: shScramble) [DSS]
COc1ccc(CCc2nc3cc(-c4c(C)noc4C)ccc3n2C[C@H](C)N2CCOCC2)cc1Cl [SGC-CBP30]	0	2.4	0	0
Cc1cc(C)c(CNC(=O)c2cc(-c3ccc(CN4CCOCC4)cc3)cc3c2cnn3C2CCCC2)c(=O)[nH]1 [EPZ-5687]	3.5	0	0	0
COc1cc2c(Oc3ccc(NC(=O)C4(C(=O)Nc5ccc(F)cc5)CC4)cc3F)ccnc2cc1OCCCN1CCOCC1 [Foretinib]	0	2.2	0	0
Cc1cc2c(F)c(Oc3ncnn4cc(OC[C@@H](C)O)c(C)c34)ccc2[nH]1 [Brivanib]	0	0	0	0
Cn1cc(CNCC2CCN(c3ncc(C(=O)NO)cn3)CC2)c2ccccc21 [Quisinostat]	8.8	11.2	8.6	8.2
C[C@@H]1CN(CC(=O)Nc2ccc3c(c2)Cc2cccc(-c4cc(=O)cc(N5CCOCC5)o4)c2S3)C[C@H](C)O1	0	3.6	0.2	0
O=C(c1cccc(Cl)c1F)N1CCN(Cc2cccc(Nc3nccs3)n2)CC1 [MK-8745]	0.9	0.3	0.5	0.3
CN(C)C(=O)c1ccc(S(=O)(=O)c2ccc(NC(=O)[C@@](C)(O)C(F)(F)F)c(Cl)c2)cc1 [AZD7545]	3.6	0	0	0
O=C(Nc1cccc(Nc2ncc(Br)c(NCCc3cnc[nH]3)n2)c1)N1CCCC1 [BX-912]	3.5	5.7	1.8	3.1
S=c1[nH]cnc2nc[nH]c12 [Mercaptopurine]	5.1	12	0	0
CCCCCCCCCCCCCCCCCCOP(=O)([O-])OC1CC[N+](C)(C)CC1 [Perifosine]	0	0.9	0.9	0
Cc1cnc(NC(=O)Nc2cc(Br)c(C)cc2OC[C@@H]2CNCCO2)cn1 [Rabusertib]	5.3	2	0	0
COc1c(OCCCN2CCOCC2)ccc2c1N=C(NC(=O)c1cnc(N)nc1)N1CCN=C21 [Copanlisib]	0	6.3	10.2	0
O=c1[nH]c(C2CCCN2)nc2c1oc1ccc(Cl)cc12 (stereo not given)	0	0	0	0
CNC(=O)c1ccc2cc([C@@]3(O)CCn4cncc43)ccc2c1 [Orteronel]	0	0	0	0
CC(=O)c1c(C)c2cnc(Nc3ccc(N4CCNCC4)cn3)nc2n(C2CCCC2)c1=O [Palbociclib]	0	2.4	0	0
CC(C)C[C@H](NC(=O)[C@@H](COC(C)(C)C)NC(=O)[C@H](Cc1ccc(O)cc1)NC(=O)[C@H](CO)NC(=O)[C@H](Cc1c[nH]c2ccccc12)NC(=O)[C@H](Cc1cnc[nH]1)NC(=O)[C@@H]1CCC(=O)N1)C(=O)N[C@@H](CCCNC(=N)N)C(=O)N1CCC[C@H]1C(=O)NNC(N)=O [Goserelin]	0	0	0	0
Cn1cc(-c2ccc3nnc(Sc4ccc5ncccc5c4)n3n2)cn1 [SGX-523]	0.9	0	0	0.9
COc1cc(CCc2cc(NC(=O)c3ccc(N4CC(C)NC(C)C4)cc3)n[nH]2)cc(OC)c1 (stereo not given) [AZD4547]	0	0	0	0
CN(C)/N=N/c1[nH]cnc1C(N)=O [Dacarbazine]	0	0	0	0
O=C(O)CCCc1ccc(N(CCCl)CCCl)cc1 [Chlorambucil]	0	0	0	0
CS(=O)(=O)CCNCc1ccc(-c2ccc3ncnc(Nc4ccc(OCc5cccc(F)c5)c(Cl)c4)c3c2)o1 [Lapatinib]	0	0	0	0

SMILES	drug sensitivity score (MDA-MB-231 [1]; shRNA: shPPFIA1_1) [DSS]	drug sensitivity score (MDA-MB-231 [1]; shRNA: shScramble) [DSS]	drug sensitivity score (MDA-MB-231 [2]; shRNA: shPPFIA1_1) [DSS]	drug sensitivity score (MDA-MB-231 [2]; shRNA: shScramble) [DSS]
CCCOc1ccn2c(C(C)=O)cc(-c3ccccc3S(C)(=O)=O)c2c1 [GSK2801]	0	0	0	0
Cc1ccc(-n2nc(C(C)(C)C)cc2NC(=O)Nc2ccc(OCCN3CCOCC3)c3ccccc23)cc1 [Doramapimod]	0	2.5	0	0
CCCCc1nc2cc(/C=C/C(=O)NO)ccc2n1CCN(CC)CC [Pracinostat]	10.6	11.9	8.1	8.5
NCCNc1ccc(NCCN)c2c1C(=O)c1ccncc1C2=O [Pixantrone]	3.1	0.4	0	0
CCN(CC)CCN(Cc1ccc(-c2ccc(C(F)(F)F)cc2)cc1)C(=O)Cn1c(SCc2ccc(F)cc2)nc(=O)c2c1CCC2 [Darapladib]	0	0	13.1	0
O=c1[nH]c(=O)n([C@H]2C[C@H](O)[C@@H](CO)O2)cc1F [Floxuridine]	14.6	19.7	0	0.2
CC[C@]1(O)C[C@@H]2CN(CCc3c([nH]c4ccccc34)[C@@](C(=O)OC)(c3cc4c(cc3OC)N(C)[C@H]3[C@@](O)(C(=O)OC)[C@H](OC(C)=O)[C@]5(CC)C=CCN6CC[C@]43[C@@H]65)C2)C1 [Vinblastine]	0	9.6	9	9.2
O=C(O)CC[C@H]1CC[C@@](c2cc(F)ccc2F)(S(=O)(=O)c2ccc(Cl)cc2)CC1 [MK-0752]	0	0.2	0	0
O=C(CCBr)N1CCN(C(=O)CCBr)CC1 [Pipobroman]	0	0	0	0
C=C1C[C@@H]2[C@H](CC[C@]3(C)C(=O)CC[C@@H]23)[C@@]2(C)C=CC(=O)C=C12 [Exemestane]	0	1.4	0	0
O=c1ncn2nc(Sc3ccc(F)cc3F)ccc2c1-c1c(Cl)cccc1Cl [VX 745]	0	0	0	0
CO[C@@H](C(=O)N1Cc2[nH]nc(NC(=O)c3ccc(N4CCN(C)CC4)cc3)c2C1)c1ccccc1 [Danusertib]	0	0	0	0.2
O=C(O)c1ccc(-c2c[nH]c3ncc(-c4ccccc4)cc23)cc1C1CCCC1	0	0	0	0
C[C@@H](Oc1ccc2[nH]nc(/C=C/c3cnn(CCO)c3)c2c1)c1c(Cl)cncc1Cl	0	4.8	0	0
Nc1nc(NC2CC2)cc(-c2cccc(Cl)c2Cl)n1 [TH588]	0.9	0.8	0.6	0.5
NC(=O)c1cccc(-c2cccc(OC(=O)NC3CCCCC3)c2)c1 [URB597]	0.2	0	0	0
O=C(NOC[C@H](O)CO)c1ccc(F)c(F)c1Nc1ccc(I)cc1F	0	9.8	2	4.7
COc1cccc2cc(-c3nc([C@H]4CC[C@H](C(=O)O)CC4)n4ncnc(N)c34)[nH]c12 [OSI-027]	0	2.9	0	0
C=C(c1ccc(C(=O)O)cc1)c1cc2c(cc1C)C(C)(C)CCC2(C)C [Bexarotene]	0	0	0	0
CN(C)C(=N)NC(=N)N [Metformin]	0	0	0	0
CCN(CC)CCNC(=O)c1c(C)[nH]c(/C=C2\C(=O)Nc3ccc(F)cc32)c1C [Sunitinib]	0	1.1	0	0
